The subject of the assay is PDAC (MIAPACA2, CFPAC-1) and PC (C4-2) cell lines. Nature of the assay: Cell death assays (Annexin V/PI, trypan blue) of HCT13 with ATR inhibition. The assay is classed as cell-based. To be noted: ATRi 250 nM VE-822, Cu(II) 20 μM, 72 h. The procedure:
FIGS. 4A-4G show the chemical genomics screen identifying the replication stress response pathway as an actionable co-dependency of HCT13-treated cells. FIG. 4A: experimental design of a synthetic lethality screen using a library of protein kinase inhibitors against HCT13-treated cells in the presence of Cu(II) (20 μM). FIG. 4B: radar plot of screen results. FIG. 4C: z-score values for kinase inhibitors within the DNA damage response/replication stress response (DDR/RSR) pathway module. FIG. 4D: representative immunoblot of replication stress and cell death biomarkers in MIAPACA2 PDAC cells treated with HCT13 (10 nM)+Cu(II) (20 μM). […] (mean±SD, n=2, one-way ANOVA corrected for multiple comparisons by Bonferroni adjustment, * P<0.05; ** P<0.01; *** P<0.001; **** P<0.0001).
FIGS. 6A-6C provide the identification of resistance mechanisms to HCT13 using a synthetic lethality screen. […] (mean±SD, n=2, one-way ANOVA corrected for multiple comparisons by Bonferroni adjustment, * P<0.05; ** P<0.01; *** P<0.001; **** P<0.0001). […]
Viability/Apoptosis assay: Viable cells were measured by Trypan blue staining using vi-cell counter (Beckman Coulter, CA, USA). […]

`CN(C)C(=S)N/N=C/c1nccc2cc(F)ccc12` (mixture of isomers) [HCT13, (E)-2-((6-Fluoroisoquinolin-1-yl)methylene)-N,N-dimethylhydrazine-1-carbothioamide and (Z)-2-((6-Fluoroisoquinolin-1-yl)methylene)-N,N-dimethylhydrazine-1-carbothioamide]: the “interaction with ATR inhibition (cell death)” value is on record as “synergistic interaction”.

The record behind these values is US12528774B2, “Thiosemicarbazone compounds and uses thereof” (The Regents of the University of California, priority 2019, dated 2026).
